From patent US4500526A, “Cephalosporin derivatives” (Bristol-Myers Company, priority 1983, dated 1985)
Converted amounts (≈) assume the structure as drawn. Where two headings read alike, the source gives them in different places.

Experiments:
[1] = system: Penicillinsensitive S. aureus (5 strains); assay: MIC, two-fold serial agar dilution, group (G+)-Ia; type: cell-based; settings: Staphylococcus aureus; (G+)-Ia, 5 strains, Mueller-Hinton agar; read-out: Geometric Mean of MIC
Outline: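 Two-fold serial agar dilution in Mueller-Hinton agar. Compound weights corrected for purity. Group comprises 5 penicillin-sensitive S. aureus strains.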

[2] = system: Cephalothinsensitive E. coli (2 strains), Kl. pneumoniae (1 strain) and Pr. mirabilis (2 strains); assay: MIC, two-fold serial agar dilution, group (G-)-Ia; type: cell-based; settings: 5 strains, Mueller-Hinton agar, read-out: Geometric Mean of MIC
Outline: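 Mueller-Hinton agar, two-fold serial dilution; test compound weights corrected for purity so MICs reflect actual compound content.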

[3] = system: H. influenzae (3) (ampicillin resistant); assay: In vitro activity against fastidious bacteria, two-fold serial agar dilution; type: cell-based; settings: Haemophilus influenzae, read-out: Geometric Mean of MIC
Description: (§1) The in vitro activity of some of the preferred compounds against 30 strains of fastidious bacteria was determined by the two-fold serial agar dilution method in Gonococcus agar (GC agar), and the results are shown in Table 3.

N. gonorrhoeae (5) = assay: as above; type: cell-based; settings: Neisseria gonorrhoeae, read-out: Geometric Mean of MIC
Description: as §1

N. meningitidis (5) = assay: as above; type: cell-based; settings: Neisseria meningitidis, read-out: Geometric Mean of MIC
Description: as §1

S. pneumoniae (5) = assay: as above; type: cell-based; settings: Streptococcus pneumoniae; GC agar; read-out: Geometric Mean of MIC
Description: as §1

S. pyogenes (5 strains) = assay: as above; type: cell-based; settings: Streptococcus pyogenes; GC agar; read-out: Geometric Mean of MIC
Description: as §1

E. coli Juhl = assay: Median protective dose in infected mice; type: in vivo; settings: Escherichia coli, im, immediately after intraperitoneal challenge, read-out: PD50
Description: (§2) The median protective dose (PD50) of some of the preferred compounds against various microorganisms was determined in mice by intramuscular administration of the test compound immediately after an intraperitoneal bacterial challenge.

P. aeruginosa A21509 = assay: Median protective dose in infected mice; type: in vivo; settings: Pseudomonas aeruginosa, im, immediately after intraperitoneal challenge, read-out: PD50
Description: as §2

P. aeruginosa A9843 = assay: Median protective dose in infected mice; type: in vivo; settings: Pseudomonas aeruginosa, im, immediately after intraperitoneal challenge, read-out: PD50
Description: as §2

S. aureus BX-1633 = assay: Median protective dose in infected mice; type: in vivo; settings: Staphylococcus aureus, BX1633, im, immediately after intraperitoneal challenge, read-out: PD50
Description: as §2

S. aureus Smith = assay: Median protective dose in infected mice; type: in vivo; settings: Staphylococcus aureus, im, immediately after intraperitoneal challenge, read-out: PD50
Description: as §2

Solubility in water = type: physicochemical
Description: A more soluble form of Compound Ia was prepared as follows. […] Powdered NaHCO3 was added in small portions, with stirring. A clear solution was obtained after adding 5.0 mg of NaHCO3 and the indicated pH then was 6.0. After filtration through a Millipore membrane filter to remove they insoluble impurities, the filtrate was lyophilized to give 245 mg of a water-soluble form of Compound Ia, mp 165° C. Estimated purity 80% (by HPLC). The sample was completely soluble in water to give a 25% solution.
To a stirred solution of diphenylmethyl 7-[(Z)-2-t-butoxycarbonylprop-2-oxyimino)-2-(2-tritylaminothiazol-4-yl)-acetamido]-3-iodomethyl-3-cephem-4-carboxylate [VIId'] (700 mg, 0.66 mmole) in 3 mL of DMSO, was added thiazolo[4,5-c]pyridine (115 mg, 0.84 mmole) in two portions and the mixture was stirred for 1.25 hours at room temperature. The reaction mixture was diluted with ether (150 mL) to separate an oily product, which was washed again with ether. The residue was dissolved in methylene chloride (100 mL) and the solution was filtered and evaporated to give 655 mg of the blocked product [XIIId']. The yellow product (630 mg) was suspended in anisole (1 mL) and, with ice cooling, was treated with a mixture of TFA (10 mL) and water (0.5 mL). The mixture was stirred for 20 minutes with ice cooling and then for 1 hour at room temperature. After evaporation of the mixture below 30° C., the residue was triturated with isopropyl ether (50 mL). The precipitate was collected by filtration, and dried under reduced pressure to obtain 485 mg of crude title compound as a yellow powder. The crude product (480 mg) was dissolved in a small volume of aqueous sodium bicarbonate and purified by HPLC (Column, Lichrosorb RP-18; mobile phase, water). The desired fractions were combined (ca. 90 mL) and acidified to pH 2 with dilute hydrochloric acid. The acidified solution was passed through an HP-20 column (50 mL) and washed with water (200 mL). […] Mp >180° C. (dec.).
The free acid of Compound Id (100 mg) was dissolved in a small volume of aqueous sodium bicarbonate and subjected to HPLC (Column, Lichrosorb RP-18; mobile phase, water). The eluate containing the desired product which was concentrated and lyophilized to give 30 mg of the sodium salt of Id as a pale yellow amorphous powder, which was more than 25% soluble in water. Mp 178°-196° C. (dec.).
A solution of diphenylmethyl 7-[(Z)-(2-t-butoxycarbonylprop-2-oxyimino)-2-(2-tritylaminothiazol-4-yl)acetamido]-3-iodomethyl-3-cephem-4-carboxylate [VIId'] (9.0 g, 8.5 mmoles) and thiazolo[4,5-c]pyridine (1.5 g, 11 mmoles) in dimethylsulfoxide (38 mL) was stirred at room temperature for 1 hour. The reaction mixture was poured into ether (500 mL) and, after decantation, the oily precipitate was dissolved in chloroform (300 mL). […]

SMILES	MIC [1] [µg/mL]	MIC [2] [µg/mL]	MIC ([3]; GC agar, ampicillin resistant, 3 strains) [µg/mL]	MIC (N. gonorrhoeae (5); GC agar) [µg/mL]	MIC (N. meningitidis (5); GC agar) [µg/mL]	MIC (S. pneumoniae (5)) [µg/mL]	MIC (S. pyogenes (5 strains)) [µg/mL]	ED50 (E. coli Juhl) [mg/kg]	ED50 (P. aeruginosa A21509) [mg/kg]	ED50 (P. aeruginosa A9843) [mg/kg]	ED50 (S. aureus BX-1633) [mg/kg]	ED50 (S. aureus Smith) [mg/kg]	solubility in water (Solubility in water; 250 mg in distilled water 1.0 mL, indicated pH 4.3)	solubility (Solubility in water; water-soluble form (NaHCO3 to pH 6.0, lyophilized)) [mg/mL]	MIC [3] [µg/mL]	MIC (N. gonorrhoeae (5)) [µg/mL]	MIC (N. meningitidis (5)) [µg/mL]	solubility in water (Solubility in water; free acid)	solubility (Solubility in water; water, sodium salt) [mg/mL]
CO/N=C(\C(=O)NC1C(=O)N2C(C(=O)[O-])=C(C[n+]3ccc4scnc4c3)CS[C@H]12)c1csc(N)n1 (stereo partly shown) [Ia, 7-[(Z)-2-(2-Aminothiazol-4-yl)-2-methoxyiminoacetamido]-3-{(5-thiazolo[4,5-c]pyridinio)methyl}-3-cephem-4-carboxylate]	0.42 (≈ 0.79 µM)	0.02 (≈ 0.0376 µM)	0.0125 (≈ 0.0235 µM)	0.0125 (≈ 0.0235 µM)	0.0125 (≈ 0.0235 µM)	0.0125 (≈ 0.0235 µM)	0.0125 (≈ 0.0235 µM)	0.012	6.25	7.2	0.75	0.45	not completely soluble	≥ 250					
CC(C)(O/N=C(\C(=O)NC1C(=O)N2C(C(=O)[O-])=C(C[n+]3ccc4scnc4c3)CS[C@H]12)c1csc(N)n1)C(=O)O (stereo partly shown) [Id, 7-[(Z)-2-(2-Aminothiazol-4-yl)-2-(2-carboxyprop-2-oxyimino)-acetamido]-3-{(5-thiazolo[4,5-c]pyridinio)methyl}-3-cephem-4-carboxylate]	4.4 (≈ 7.29 µM)	0.04 (≈ 0.0663 µM)				0.2 (≈ 0.331 µM)	0.2 (≈ 0.331 µM)	0.082	5	4.3	21	7.2			0.1 (≈ 0.166 µM)	0.1 (≈ 0.166 µM)	0.1 (≈ 0.166 µM)	slightly soluble in water	> 250
